Tests used:
[1] = molecular target: T1, BMPR-1A (ALK3) receptor extra cellular domain (Homo sapiens, UniProt P36894); assay: Radio-ligand receptor binding assay, competition with 125I-labeled TDF-1 for ALK-3; details: competitive binding assay, FIG. 2
T1 construct: immobilized BMPR-1A receptor extra cellular domain (ECD)
Description: (§1) General protocol: These assays are based on competition between ^125I-labeled TDF-1 (BMP-7 or OP-1) and candidate TDFRP compounds or unlabeled TDF-1 for binding to respective receptors (ALK-3, ALK-6 or BMPR-2). In brief, the procedure involves immobilization of receptor on 96 well Removawell plates, blocking the wells with 3% BSA in PBS and subsequently washing the wells. Increasing concentrations of unlabeled TDF-1 or TDFRP compounds or control (unlabeled TDF-1) prepared in binding buffer are then added. Incubate plate for 1 hour at room temperature, and then add a fixed amount of ^125I-labeled TDF-1 (250,000 to 350,000 cpm) to the wells and further incubate in cold (4° C.) for 20 hours. Aspirate the contents of the wells and wash the wells four times with a wash buffer, and count the receptor bound ^125I-labeled TDF-1 in an auto gamma counter. B. HK-2 Cell Culture and Determination of Cytokine Production

[2] = molecular target: T2, BMPR-2 receptor extra cellular domain (Homo sapiens, UniProt Q13873); assay: Radio-ligand receptor binding assay, competition with 125I-labeled TDF-1 for BMPR-2; details: competitive binding, FIG. 4
T2 construct: immobilized BMPR-2 receptor extra cellular domain (ECD)
T2 sequence (Q13873 27-150 limits assumed): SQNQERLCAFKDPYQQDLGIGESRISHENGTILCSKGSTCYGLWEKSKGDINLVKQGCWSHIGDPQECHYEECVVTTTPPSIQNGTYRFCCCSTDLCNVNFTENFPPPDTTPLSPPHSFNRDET
Description: as §1

HK-2 cells = assay: Anti-inflammatory activity in HK-2 cell culture (FIG. 11-13); format: cell-based, human; details: marker not stated
Procedure: (§2) The immortalized PTEC-derived HK-2 (Human Kidney-2) cells (ATCC number CRL-2190) were grown in serum-free keratinocyte medium (GIBCO number 17005-042) supplemented with epidermal growth factor (EGF: 5 ng/mL) and bovine pituitary extract (40 ug/mL) for 48 hours as described previously (Ryan et al (1994) Kidney International 45:48-57). Cells were transferred to 24-well plates at a density of 3×10^5 cells per well. After 24 hours, cells were incubated with fresh medium containing TNF-alpha (5 ng/mL) for 20 hours. Controls received medium alone. Then cells were washed twice with fresh culture medium and further incubated with culture medium alone (medium control, and TNF control wells) or TDF-1 at three different concentrations (40, 200 or 1000 ng/mL) or TDFRP compounds at three different concentrations (4, 20 or 100 uM) for sixty hours. During incubation, cells were kept in a 5% CO2 humid atmosphere at 37° C. At the end of the incubation, the media were removed and stored frozen until assayed. The concentrations of IL-6 and sICAM-in culture supernatants were measured by specific ELISA.

[3] = tested on: IL-6 in HK2 human transformed kidney proximal tubule cells; assay: IL-6 level in HK-2 cell medium after TNF-alpha stimulation (ELISA); format: cell-based; details: after TNF-alpha inflammatory stimulation, FIG. 6, FIG. 10
Procedure: as §2
Dilute the capture antibody to the working concentration in PBS, pH 7.4 without carrier protein. Add 61 uL of stock antibody (360 ug/mL) to 10.939 mL of PBS, gently vertex. Immediately coat a 96 well microplate (Immulon 4 HBX) with 100 uL per well of the diluted capture antibody. Seal the plate and incubate it overnight in cold (4° C.). (PBS: 8.1 mM Na2HPO4, 1.5 mM KH2PO4, 137 mM NaCl, 2.7 mM KCl, pH 7.4, 0.2 um filtered). Next day empty the wells and wash the wells three times, each time using 340 uL of wash buffer per well. (wash buffer: PBS, pH 7.4 containing 0.05% Tween-20).
Prepare blocking buffer, 35 mL per plate. To prepare blocking buffer, add 0.35 grams of BSA and 1.75 grams of sucrose to 35 mL of PBS, pH 7.4, and mix the contents gently. Add 300 uL of blocking buffer to each well and incubate the plate for a minimum of 1 hour at room temperature. Empty the wells and wash wells three times, each time using 340 uL of wash buffer per well.
Prepare a 8 point standard curve using 2-fold serial dilutions in reagent diluent. Dilute stock standard, recombinant IL-6, 70 ng/mL to an initial concentration of 2400 ng/mL in reagent diluent. Then further dilute the standard to a working range, 1200, 600, 300, 150, 75, 37.5, 18.75 and 9.375 ng/mL using reagent diluent. (to prepare reagent diluent, add 0.4 grams of BSA to 40 mL of PBS, pH 7.4 and gently vertex). Also dilute 24 uL of each sample medium (from HK-2 cell cultures) with 376 uL of reagent diluent. Add 100 uL of standard or sample per well, seal the plate and incubate it overnight in cold (4° C.).
Next day, empty the wells and wash wells three times, each time using 340 uL of wash buffer per well. […]

T1 sequence (P36894 24-152 limits assumed, species assumed): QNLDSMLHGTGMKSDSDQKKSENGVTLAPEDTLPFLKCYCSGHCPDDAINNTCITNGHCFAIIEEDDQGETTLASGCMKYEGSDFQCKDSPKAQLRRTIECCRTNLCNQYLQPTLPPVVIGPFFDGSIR

“CIVNSSDDFLCKKYRS [SEQ ID NO:16, negative control peptide]” was tested, and the “specific binding to ALK3 / inhibition of specific binding of labeled TDF-1 to ALK3 receptor” value [1] was “does not inhibit” and the “specific binding to BMPR-2 / inhibition of specific binding of labeled TDF-1 to BMPR-2 receptor” value [2] was “does not inhibit”.

For CLFDDSSNVICKKYRS [SEQ ID NO:15], the anti-inflammatory activity (HK-2 cells) was “very weak anti-inflammatory activity”.

For CYFDDNSNVICKKYRS [SEQ ID NO:42], the anti-inflammatory activity (HK-2 cells) was “no anti-inflammatory activity”.

CYFDDSSNVICK [SEQ ID NO:21] was tested, and the “specific binding to ALK3 / inhibition of specific binding of labeled TDF-1 to ALK3 receptor” value [1] was “specifically binds” and the anti-inflammatory activity (HK-2 cells) was “no anti-inflammatory activity”.

In the case of CYFDDSSNVICKK [SEQ ID NO:20], the anti-inflammatory activity (HK-2 cells) is reported as “no anti-inflammatory activity”.

CYFDDSSQVICKKYRS [SEQ ID NO:43] was tested, and the “effect on level of IL-6 in HK2 cell medium” value [3] was “brings the IL-6 level down below the basal level”.

In the case of “TP2.006: peptide printed as SEQ ID NO:45 in FIG. 12 legend; conflicts with TP2.003 = SEQ ID NO:45 in b271 (CYFDDSSNVLCKKYRS)”, the anti-inflammatory activity (HK-2 cells) is reported as “no anti-inflammatory activity”.
